The text below walks through data of patent US20030165585A1, “Xanthine-containing compositions for oral administration and uses related thereto” (priority 2002, published 2003).

Common to all, as to format: in vivo, human
Assay [1] in a line: Weight loss in overweight subjects, daily administration over two weeks. To be noted: Formulation I (ten subjects) vs 180 mg caffeine capsules (five) vs placebo (five), FIG. 1. The text has this: Weights were averaged and weight loss was charted every three days in all groups.
In assay [2] the test system is subjects. Kind of assay: Standard short-term memory test (repeating a read series of numbers backward). To be noted: three of the five subjects; test 30 minutes after ingestion. The method, then: The test consisted of an examiner reading a series of numbers to the subject and the subject subsequently being asked to repeat said numbers backward. In all cases, the test was initiated 30 minutes after ingestion of the composition.

The subject of assay [3] is subjects. Kind of assay: Stimulant effect: scores in video game of skill Pilot Wing before and after consuming composition. To be noted: five subjects, crossover over three days, Formulation I vs 180 mg caffeine vs placebo. The method, then: Five subjects were tested over a period of three days. […] Both prior to and after consuming the composition, each subject played a video game of skill called Pilot Wing™ made by Nintendo™.

Regarding `Cn1c(=O)c2c(ncn2C)n(C)c1=O` [caffeine], the “weight loss compared between groups” value in assay [1] is given as “not matched”. Besides, in the assay with subjects [2], the “digits repeated backwards without error” value is recorded as “could not repeat this accomplishment”. Besides, the “video game scores after consuming the composition” value with subjects [3] is recorded as “higher scores after consuming the caffeine, compared to consuming the placebo”.
